# Data reported in US6908919B2, “Substituted polycyclic aryl and heteroaryl pyrazinones useful for selective inhibition of the coagulation cascade” (Pharmacia Corporation, priority 1999, dated 2005).
# Where two headings read alike, the source gives them in different places.
# Legend:
# [1] = target: T1, recombinant soluble tissue factor and recombinant human factor VIIa (TF-VIIa) (Homo sapiens, UniProt P08709); experiment: TF-VIIa Assay; type: biochemical; conditions: for IC50: read-out: IC50 TF-VIIa
# T1 construct: conversion of coagulation factor VII to VIIa by Xa; purchased American Diagnostica, Greenwich Conn; host or cells: VIIa purchased; soluble TF made in house in E. coli
# Human factor Xa = Human factor Xa (Homo sapiens, UniProt P00742); experiment: Xa Assay; type: biochemical; set-up: purchased Enzyme Research Laboratories, South Bend Ind; conditions: for inhibition at 100 µM / % Inhibition Factor Xa at 100 μM: at 100 μM inhibitor
# Human factor Xa, sequence (P00742 41-179 limits assumed): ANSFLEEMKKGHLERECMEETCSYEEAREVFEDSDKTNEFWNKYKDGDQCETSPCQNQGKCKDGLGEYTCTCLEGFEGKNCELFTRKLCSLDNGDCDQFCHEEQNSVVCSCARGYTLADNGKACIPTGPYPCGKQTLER
# Human factor Xa, sequence (P00742 235-488 limits assumed): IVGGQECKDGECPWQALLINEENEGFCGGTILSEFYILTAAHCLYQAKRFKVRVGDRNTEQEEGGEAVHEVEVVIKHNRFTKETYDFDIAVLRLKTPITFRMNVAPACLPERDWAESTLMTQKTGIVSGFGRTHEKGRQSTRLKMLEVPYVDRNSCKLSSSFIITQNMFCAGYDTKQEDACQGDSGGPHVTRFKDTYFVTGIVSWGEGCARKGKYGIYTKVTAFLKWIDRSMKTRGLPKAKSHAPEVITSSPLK
# T1 sequence (P08709 61-212 limits assumed): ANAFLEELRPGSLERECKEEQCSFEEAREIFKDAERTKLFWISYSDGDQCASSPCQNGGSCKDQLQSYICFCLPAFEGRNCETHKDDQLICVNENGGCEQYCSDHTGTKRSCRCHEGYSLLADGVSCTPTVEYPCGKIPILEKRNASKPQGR
# T1 sequence (P08709 213-466 limits assumed): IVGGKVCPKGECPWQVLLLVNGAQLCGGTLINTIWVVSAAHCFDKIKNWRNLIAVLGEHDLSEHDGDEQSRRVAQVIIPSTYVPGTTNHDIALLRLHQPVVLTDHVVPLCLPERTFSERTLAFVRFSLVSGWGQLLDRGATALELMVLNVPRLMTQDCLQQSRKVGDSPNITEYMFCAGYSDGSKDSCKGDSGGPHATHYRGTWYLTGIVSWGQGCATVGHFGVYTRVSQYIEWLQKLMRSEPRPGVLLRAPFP
# T1 sequence (P13726 33-251 partner limits assumed): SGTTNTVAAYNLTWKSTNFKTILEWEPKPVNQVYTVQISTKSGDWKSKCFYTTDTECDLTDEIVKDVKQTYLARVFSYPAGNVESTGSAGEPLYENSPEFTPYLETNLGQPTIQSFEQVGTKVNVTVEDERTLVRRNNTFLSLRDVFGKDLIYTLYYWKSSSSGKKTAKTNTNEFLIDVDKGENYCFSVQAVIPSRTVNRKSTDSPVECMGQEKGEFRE
compound,measurement,setting,value
O=C(Cn1c(-c2ccc(Cl)cc2)c(Cl)nc(NCc2ccncc2)c1=O)NCCc1ccncc1 [Example E-0032],% Inhibition TF-VIIa (100 µM),[1]; inhibitor at 100 µM,0%
same,% Inhibition Factor Xa (100 µM),Human factor Xa; inhibitor at 100 µM,0%
CC(C)Nc1nc(Cl)c(-c2cc(N)cc(C(N)=O)c2)n(CC(=O)NCc2ccc(C(=N)N)cc2)c1=O [Example 128-1],IC50,[1],0.022 µM
same,inhibition at 100 µM,Human factor Xa,25%
C[C@H](Nc1nc(Cl)c(-c2cccc(N)c2)n(CC(=O)NCc2ccc(C(=N)N)cc2)c1=O)C(=O)O [Example 135],IC50,[1],6.4 µM
same,% Inhibition Factor Xa at 100 μM,Human factor Xa,6% at 100 μM
COc1ccc(-c2c(Cl)nc(NCc3ccncc3)c(=O)n2CC(=O)NCCc2ccncc2)cc1 [Example E-0040],% Inhibition TF-VIIa (100 µM),[1]; inhibitor at 100 µM,0%
same,% Inhibition Factor Xa (100 µM),Human factor Xa; inhibitor at 100 µM,0%
N=C(N)c1ccc(CNC(=O)Cn2c(-c3ccccc3)c(Cl)nc(NCC(F)(F)F)c2=O)cc1 [1507-41],% Inhibition TF-VIIa (30 µM),[1]; at 30 µM inhibitor,48%
same,% Inhibition Factor Xa (30 µM),Human factor Xa; at 30 µM inhibitor,17%
N=C(N)c1ccc(CNC(=O)Cn2c(-c3ccccc3)c(Cl)nc(NCC3CC3)c2=O)cc1 [Example 1517-43],% Inhibition TF-VIIa (30 µM),[1]; at 30 µM,25%
same,% Inhibition Factor Xa (30 µM),Human factor Xa; at 30 µM,0%
N=C(N)c1ccc(CNC(=O)Cn2c(-c3ccc(-c4ccccc4)cc3)c(Cl)nc(NCc3ccncc3)c2=O)cc1 [1471-67],% Inhibition TF-VIIa (30 µM),[1]; at 30 µM inhibitor,12%
same,% Inhibition Factor Xa (30 µM),Human factor Xa; at 30 µM inhibitor,16%
O=C(Cn1c(-c2ccccc2)c(Cl)nc(NCCc2ccc(Cl)cc2)c1=O)NCCc1ccncc1 [Example E-0012],% Inhibition TF-VIIa (100 µM),[1]; inhibitor at 100 µM,0%
same,% Inhibition Factor Xa (100 µM),Human factor Xa; inhibitor at 100 µM,0%
O=C(Cn1c(-c2ccc(Cl)cc2)c(Cl)nc(NCCc2cccc(Cl)c2)c1=O)NCCc1ccncc1 [Example E-0019],% Inhibition TF-VIIa (100 µM),[1]; inhibitor at 100 µM,0%
same,% Inhibition Factor Xa (100 µM),Human factor Xa; inhibitor at 100 µM,0%
O=C(Cn1c(-c2ccc(Cl)cc2)c(Cl)nc(NCCc2ccccc2)c1=O)NCCc1ccncc1 [Example E-0026],% Inhibition TF-VIIa (100 µM),[1]; inhibitor at 100 µM,0%
same,% Inhibition Factor Xa (100 µM),Human factor Xa; inhibitor at 100 µM,0%
O=C(Cn1c(Cc2ccccc2)c(Cl)nc(NCCc2cccnc2)c1=O)NCCc1ccncc1 [Example E-0061],% Inhibition TF-VIIa (100 µM),[1]; inhibitor at 100 µM,0%
same,% Inhibition Factor Xa (100 µM),Human factor Xa; inhibitor at 100 µM,0%
N=C(N)c1ccc(CNC(=O)Cn2c(-c3ccc(-c4ccccc4)cc3)c(Cl)nc(NCCc3ccc(Cl)cc3)c2=O)cc1 [Example 22],% Inhibition TF-VIIa (30 µM),[1],0% @ 30
same,% Inhibition Factor Xa (30 µM),Human factor Xa,13% @ 30
O=C(Cn1c(Cc2ccccc2)c(Cl)nc(NCc2ccccc2)c1=O)NCCc1ccncc1 [Example E-0057],% Inhibition TF-VIIa (100 µM),[1]; inhibitor at 100 µM,0%
same,% Inhibition Factor Xa (100 µM),Human factor Xa; inhibitor at 100 µM,6%
COc1ccc(-c2c(Cl)nc(NCCN3CCOCC3)c(=O)n2CC(=O)NCCc2ccncc2)cc1 [Example E-0039],% Inhibition TF-VIIa (100 µM),[1]; inhibitor at 100 µM,0%
same,% Inhibition Factor Xa (100 µM),Human factor Xa; inhibitor at 100 µM,1%
N=C(N)c1ccc(CNC(=O)Cn2c(-c3ccccc3)c(Cl)nc(NCc3cc(F)cc(C(F)(F)F)c3)c2=O)cc1 [1512-29],% Inhibition TF-VIIa (30 µM),[1]; at 30 µM inhibitor,47%
same,% Inhibition Factor Xa (30 µM),Human factor Xa; at 30 µM inhibitor,4%
CCc1c(Cl)nc(NCCc2cccc(Cl)c2)c(=O)n1CC(=O)NCc1ccc(C(=N)N)cc1 [1471-62],% Inhibition TF-VIIa (30 µM),[1]; at 30 µM inhibitor,4%
same,% Inhibition Factor Xa (30 µM),Human factor Xa; at 30 µM inhibitor,0%
COc1ccc(-c2c(Cl)nc(NCCc3cccc(Cl)c3)c(=O)n2CC(=O)NCCc2cccnc2)cc1 [Example E-0104],% Inhibition TF-VIIa (100 µM),[1]; inhibitor at 100 µM,3%
same,% Inhibition Factor Xa (100 µM),Human factor Xa; inhibitor at 100 µM,5%
CC(C)Nc1nc(Cl)c(-c2cc(N)cc(C(=O)NCc3ccc(Br)cc3)c2)n(CC(=O)NCc2ccc(C(=N)N)cc2)c1=O [Example 128-8],IC50,[1],0.067 µM
same,% Inhibition Factor Xa at 100 μM,Human factor Xa,44% at 100 μM
N=C(N)c1ccc(CNC(=O)Cn2c(-c3ccccc3)c(Cl)nc(NCc3cccc(OC(F)(F)F)c3)c2=O)cc1 [1512-40],% Inhibition TF-VIIa (30 µM),[1]; at 30 µM inhibitor,40%
same,% Inhibition Factor Xa (30 µM),Human factor Xa; at 30 µM inhibitor,3%
N=C(N)c1ccc(C(O)CCCn2c(-c3cccc(N)c3)c(Cl)nc(NC3CCC3)c2=O)cc1 (stereo not shown) [Example 143],IC50,[1],43.2 µM
same,inhibition at 100 µM,Human factor Xa,30%
O=C(Cn1c(-c2cccc(Cl)c2)c(Cl)nc(NCCc2ccccc2)c1=O)NCCc1cccnc1 [Example E-0089],% Inhibition TF-VIIa (100 µM),[1]; inhibitor at 100 µM,3%
same,% Inhibition Factor Xa (100 µM),Human factor Xa; inhibitor at 100 µM,4%
O=C(Cn1c(-c2ccccc2)c(Cl)nc(NCc2ccccc2)c1=O)NCCc1ccncc1 [Example E-0009],% Inhibition TF-VIIa (100 µM),[1]; inhibitor at 100 µM,0%
same,% Inhibition Factor Xa (100 µM),Human factor Xa; inhibitor at 100 µM,1%
O=C(Cn1c(-c2ccc(-c3ccccc3)cc2)c(Cl)nc(NCCc2cccnc2)c1=O)NCCc1ccncc1 [Example E-0053],% Inhibition TF-VIIa (100 µM),[1],0%
same,% Inhibition Factor Xa (100 µM),Human factor Xa,0%
O=C(Cn1c(-c2ccc(-c3ccccc3)cc2)c(Cl)nc(NCc2ccccc2)c1=O)NCCc1cccnc1 [Example E-0110],% Inhibition TF-VIIa (100 µM),[1],0%
same,% Inhibition Factor Xa (100 µM),Human factor Xa,3%
N=C(N)c1ccc(CNC(=O)Cn2c(-c3ccc(C(=N)N)cc3)c(Cl)nc(NC3CCC3)c2=O)cc1 [Example 113],IC50,[1],6.19 µM
same,IC50,Human factor Xa,14 µM
COc1ccc(-c2c(Cl)nc(NCCc3ccccc3)c(=O)n2CC(=O)NCCc2ccncc2)cc1 [Example E-0034],% Inhibition TF-VIIa (100 µM),[1]; inhibitor at 100 µM,0%
same,% Inhibition Factor Xa (100 µM),Human factor Xa; inhibitor at 100 µM,6%
